Test results: ChEMBL document CHEMBL1201862, “PubChem BioAssay data set” (2004)
Calls of active or inactive are those of the source.

Tests used:
cells [1] = test: cells
Major prion protein = Major prion protein (Homo sapiens, UniProt P04156); assay type: functional, cell-based
[2] = biological target: T1, RNA-binding protein pos-1 (Caenorhabditis elegans, UniProt G5EF15); test: inhibitors of POS-1/mex-3 RNA binding, dose response, biochemical, fluorescence polarization (AID 1964);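 note: purified POS-1 fused to maltose binding protein made in E. coli; potency of compounds blocking POS-1 binding to fluorescent RNA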
T1 sequence (G5EF15 whole entry): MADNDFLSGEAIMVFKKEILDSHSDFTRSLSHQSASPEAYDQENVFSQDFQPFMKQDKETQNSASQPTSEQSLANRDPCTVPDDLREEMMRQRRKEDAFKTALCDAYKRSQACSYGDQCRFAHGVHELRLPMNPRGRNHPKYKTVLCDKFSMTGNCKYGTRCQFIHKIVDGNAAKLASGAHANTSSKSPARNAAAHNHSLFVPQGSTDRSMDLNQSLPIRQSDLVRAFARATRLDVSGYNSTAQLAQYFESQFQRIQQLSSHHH

[3] = biological target: T2, Zinc finger protein mex-5 (Caenorhabditis elegans, UniProt Q9XUB2); test: MEX-5/TCR-2 RNA interaction inhibitors, dose response, biochemical, C. elegans, fluorescence polarization (AID 1960)
T2 sequence (Q9XUB2 whole entry): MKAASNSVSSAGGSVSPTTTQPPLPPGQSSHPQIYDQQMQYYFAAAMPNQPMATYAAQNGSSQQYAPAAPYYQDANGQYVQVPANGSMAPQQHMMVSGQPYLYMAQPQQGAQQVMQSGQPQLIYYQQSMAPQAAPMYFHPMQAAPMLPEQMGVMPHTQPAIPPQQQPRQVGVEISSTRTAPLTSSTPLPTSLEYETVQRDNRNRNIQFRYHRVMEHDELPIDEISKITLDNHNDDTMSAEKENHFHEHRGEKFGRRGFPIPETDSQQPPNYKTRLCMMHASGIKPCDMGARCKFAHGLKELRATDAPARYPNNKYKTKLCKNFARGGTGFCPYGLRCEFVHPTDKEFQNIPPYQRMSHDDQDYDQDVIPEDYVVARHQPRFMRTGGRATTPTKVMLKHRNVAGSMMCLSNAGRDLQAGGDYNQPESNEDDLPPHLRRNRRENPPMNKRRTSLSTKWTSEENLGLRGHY

[4] = biological target: T3, Oxysterols receptor LXR-beta (Homo sapiens, UniProt P55055); assay type: functional, cell-based;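 note: agonist activity at LXR measured by a cell-based luminescence readout across a dose range, run as a counterscreen for daf-12 agonists; HEK293 cells with Gal4-LXR fusion and GAL4-driven luciferase reporter; potency for activation of Gal4-LXR reporter so compounds are agonists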
T3 sequence (P55055 whole entry): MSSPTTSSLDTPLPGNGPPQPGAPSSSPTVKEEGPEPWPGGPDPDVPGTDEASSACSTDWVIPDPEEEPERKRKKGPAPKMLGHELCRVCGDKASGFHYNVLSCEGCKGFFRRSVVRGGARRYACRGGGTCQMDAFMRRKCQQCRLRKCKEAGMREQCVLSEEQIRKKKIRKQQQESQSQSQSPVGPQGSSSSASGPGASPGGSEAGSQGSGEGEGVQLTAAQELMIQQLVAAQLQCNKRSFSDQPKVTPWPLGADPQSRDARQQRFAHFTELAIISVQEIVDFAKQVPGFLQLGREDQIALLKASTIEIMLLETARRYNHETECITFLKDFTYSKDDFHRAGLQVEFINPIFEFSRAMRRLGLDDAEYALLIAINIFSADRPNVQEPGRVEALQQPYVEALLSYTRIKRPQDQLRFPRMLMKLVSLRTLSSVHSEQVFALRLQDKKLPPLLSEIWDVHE

[5] = non-specific cell cytotoxicity, dose response, cytotoxicity control for PAX8 inhibitor project, plate reader, dry powder samples (AID 743021); assay type: functional, cell-based
Paired box protein Pax-8 = Paired box protein Pax-8 (Homo sapiens, UniProt Q06710); test: inhibitors of PAX8-driven TPO luciferase reporter, dose response, RMG-I cells, cherry-pick (AID 687027); assay type: functional, cell-based;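 note: luciferase reporter driven by Pax8 target thyroperoxidase promoter measured by SteadyGlo luminescence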
[6] = biological target: T4, Fructose-bisphosphate aldolase (Mycobacterium tuberculosis, UniProt P9WQA3); test: Fluorescence-based biochemical high throughput dose response assay for inhibitors of the fructose-bisphosphate aldolase (FBA) of M. tuberculosis.; assay type: functional
T4 sequence (P9WQA3 whole entry): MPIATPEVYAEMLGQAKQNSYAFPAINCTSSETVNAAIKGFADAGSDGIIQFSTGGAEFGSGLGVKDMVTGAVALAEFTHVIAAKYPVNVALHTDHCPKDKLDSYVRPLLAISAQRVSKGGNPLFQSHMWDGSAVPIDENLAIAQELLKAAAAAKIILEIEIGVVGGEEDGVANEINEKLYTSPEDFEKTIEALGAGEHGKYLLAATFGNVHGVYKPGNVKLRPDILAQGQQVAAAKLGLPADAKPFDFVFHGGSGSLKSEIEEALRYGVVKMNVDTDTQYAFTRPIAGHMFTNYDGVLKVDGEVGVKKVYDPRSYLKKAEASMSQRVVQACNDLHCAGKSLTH

[7] = biological target: T5, Alkaline phosphatase, tissue-nonspecific isozyme (Homo sapiens, UniProt P05186); test: human TNAP enzyme inhibitors, SAR follow-up, biochemical, luminescent, dose response (AID 1056)
T5 sequence (P05186 whole entry): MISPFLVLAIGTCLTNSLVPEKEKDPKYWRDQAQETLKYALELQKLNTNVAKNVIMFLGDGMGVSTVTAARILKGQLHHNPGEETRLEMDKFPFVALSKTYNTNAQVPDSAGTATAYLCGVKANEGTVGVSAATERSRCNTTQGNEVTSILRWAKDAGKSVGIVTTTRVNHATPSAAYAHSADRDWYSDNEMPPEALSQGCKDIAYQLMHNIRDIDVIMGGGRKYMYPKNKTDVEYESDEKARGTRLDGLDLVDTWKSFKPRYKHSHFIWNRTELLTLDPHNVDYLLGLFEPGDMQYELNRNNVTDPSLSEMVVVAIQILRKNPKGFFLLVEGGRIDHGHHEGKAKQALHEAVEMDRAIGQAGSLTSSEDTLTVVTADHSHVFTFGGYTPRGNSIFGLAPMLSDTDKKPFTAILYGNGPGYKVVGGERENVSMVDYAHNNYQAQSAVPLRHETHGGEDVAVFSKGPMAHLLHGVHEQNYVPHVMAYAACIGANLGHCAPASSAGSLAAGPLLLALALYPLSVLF

[8] = biological target: Glyceraldehyde-3-phosphate dehydrogenase (Homo sapiens, UniProt P04406)
[9] = biological target: Disintegrin and metalloproteinase domain-containing protein 17 (Homo sapiens, UniProt P78536); test: ADAM17 protease inhibitors, dose response, counter-screen for ADAM10 exosite inhibitor project, biochemical, quenched FRET substrate (AID 743253)
[10] = ADAM10 inhibitors, peptide cleavage, dose response, biochemical, QFRET (AID 743254);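 note: ADAM10 enzyme with the DM2 quenched FRET peptide as substrate; EDANS fluorescence gain as the protease cuts the substrate; inhibitor potency against ADAM10 proteolytic activity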
[11] = Luminescence Cell-Based Dose Retest to Confirm Inhibitors of Cancer Stem Cells. [Related pubchem assays (depositor defined):AID2717, AID2721]; assay type: functional; details: Homo sapiens
[12] = growth suppression of beta-catenin-knockout colon cells, dose response, cell-based, HCT116, human colon tumor (AID 1045); assay type: functional;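 note: HCT116 colon tumor cells with beta catenin knocked out; cells exposed to compound for 60 hours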
[13] = growth suppression of PTEN-null colon cells, dose response, cell-based, HCT116 PTEN knockout (AID 1047); assay type: functional;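 note: HCT116 colon tumor cells with PTEN knocked out; cells exposed to compound for 60 hours before readout; potency for loss of cell viability measured by luminescence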
[14] = biological target: T6, Nuclear receptor subfamily 0 group B member 1 (Homo sapiens, UniProt P51843); assay type: functional, cell-based;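 note: HEK293T cells transfected with SF-1 and DAX-1 plus StAR promoter luciferase reporter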
T6 sequence (P51843 whole entry): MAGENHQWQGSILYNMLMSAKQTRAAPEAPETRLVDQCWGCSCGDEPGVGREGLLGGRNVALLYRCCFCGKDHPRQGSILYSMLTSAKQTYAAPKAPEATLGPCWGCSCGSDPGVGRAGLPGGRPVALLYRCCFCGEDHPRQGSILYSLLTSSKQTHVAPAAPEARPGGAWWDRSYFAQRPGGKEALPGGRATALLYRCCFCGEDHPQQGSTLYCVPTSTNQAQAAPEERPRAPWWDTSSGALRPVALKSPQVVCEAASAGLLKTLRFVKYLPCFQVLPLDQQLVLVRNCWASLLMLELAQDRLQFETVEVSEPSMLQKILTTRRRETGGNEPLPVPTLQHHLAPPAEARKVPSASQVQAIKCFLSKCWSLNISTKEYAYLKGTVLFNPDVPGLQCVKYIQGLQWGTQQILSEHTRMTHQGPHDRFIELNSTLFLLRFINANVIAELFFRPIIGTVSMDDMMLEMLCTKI

cells [15] = assay type: functional, cell-based
H4 = test: Luminescence Cell-Based Dose Response HTS to Identify Activators of 5'UTR Stem-Loop Driven Prion Protein mRNA Translation in H4 Neuroglioblastoma Cells. [Related pubchem assays: 1829 (Project Summary), 1814 (Primary HTS)]; assay type: functional; details: Homo sapiens
cells [16] = assay type: functional, cell-based; remark: listed apart in the source
cells [17] = assay type: functional, cell-based; remark: listed apart in the source

CC(=O)CSc1nc(O)c(C#N)c(-c2cccs2)n1
IC50 (cells [1]): > 138 µM (inactive)

CCOC(=O)CSc1nc(CC)nc2ccccc12
IC50 (cells [1]): > 138 µM (inactive) | IC50 (Major prion protein): 1.08 µM (active)

Cc1nnc(S)c2nn(-c3cccc(Cl)c3)c(C)c12
EC50 [2]: 137 µM (active) | EC50 [3]: 153 µM (active) | IC50 (cells [1]): > 138 µM (inactive) | IC50 (Major prion protein): 5.53 µM (active)

Cc1ccc(-c2cn3cccnc3n2)cc1
EC50 [4]: > 67.6 µM (inactive)

Cc1ccc(S(=O)(=O)Nc2ccc3c(c2)CC(=O)N([C@@H](C)CO)C[C@H](C)[C@@H](CN(C)C(=O)Nc2ccc(C(F)(F)F)cc2)O3)cc1
AC50 [5]: 43.1 µM (active) | AC50 (Paired box protein Pax-8): 30.4 µM (active)

COc1ccc(-c2nnc3oc(O)cc(C)c2-3)cc1
IC50 [6]: 1.88 µM (active) | IC50 [7]: 1.06 µM (active) | IC50 [8]: > 100 µM (not active)

Cc1cccc(OCCNC(=O)c2cccc(Oc3ccc(C(F)(F)F)cc3[N+](=O)[O-])c2)c1
IC50 [9]: > 69.5 µM (inactive) | IC50 [10]: 27.5 µM (inactive) | AC50 [11]: 23.5 µM (active)

COc1ccc(-c2c[nH]nc2-c2ccc(OCc3ccccc3)cc2O)cc1OC
IC50 [9]: > 69.5 µM (inactive) | IC50 [10]: > 69.5 µM (inactive)

CCOC(=O)c1oc2cccc(OCC(O)CNC(C)C)c2c1C (configuration not stated)
EC50 [12]: 47.7 µM (active) | EC50 [13]: 45.6 µM (active) | IC50 [6]: 0.843 µM (active)

O=C(/N=c1\nc2ccccn2s1)c1ccccc1
IC50 [14]: > 67.5 µM (inactive) | IC50 (cells [15]): > 67.5 µM (inactive) | EC50 (H4): 5.73 µM (active)

Cc1ccc(-c2nc3ccccc3nc2NN)cc1
IC50 [6]: > 10 µM (inactive) | EC50 (cells [16]): > 350 µM (not active) | EC50 (cells [17]): 7.52 µM (active)
